Data: patent US4055640A, “Compositions and methods for controlling the growth of bacteria, fungi and algae using certain derivatives of N-(2,2-dichlorovinyl)salicylamides” (Nippon Kayaku Co., Ltd., priority 1975, dated 1977)
≈ marks a conversion by molar mass, not a printed value. Where “and” joins values, the source holds several entries; their conditions need not be identical. Equal values may be shown once. Where a name gives a salt, the structure may show the parent alone.

Experiments:
Aspergillus niger = test: Minimum inhibitory concentration, dilution methods (Example 14); type: cell-based
Excerpt: (§1) Bacteriocidal activity and fungicidal activity of the active compounds of the present invention were examined by potato-dextrose agar dilution method, [2] waxman's liquid medium dilution method or [3] glucose bouillon medium dilution method. The results are shown in Table 4 below as the minimum inhibitory concentration (the minimum concentration of active compound found to produce 100% control of the test bacteria and fungi).

Escherichia coli = test: as above; type: cell-based; conditions: Escherichia coli
Excerpt: as §1

Cladosporium harbarum = test: as above; type: cell-based; conditions: for minimum inhibitory concentration: (1) potato-dextrose agar dilution method
Excerpt: as §1

Bacillus subtilis = test: as above; type: cell-based; conditions: Bacillus subtilis
Excerpt: as §1

Penicillium Citrinum = test: as above; type: cell-based; conditions: for MIC: Penicillium citrinum
Excerpt: as §1

Staphylococcus aureus = test: as above; type: cell-based; conditions: for minimum inhibitory concentration: (1) potato-dextrose agar dilution method; for MIC: Staphylococcus aureus
Excerpt: as §1

[1] = tested on: Cucumber seeds (variety: Oyashima); test: Phytotoxicity on cucumber seeds (Experimental Example 7); type: in vivo
[2] = tested on: Cladosporium cucumerinum (cucumber scab); test: Exterminating test on cucumber scab (Experimental Example 2); type: in vivo; parameters: scale not given here; conditions: 500 ppm, 5 days after inoculation
How it was run: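 Potted cucumber seedlings (cv. Sagamihanjiro, 3–4 leaf stage) were sprayed with an aqueous suspension of 80% wettable powder, then spray-inoculated with Cladosporium cucumerinum spores 24 h later. Plants were held 24 h in a moist chamber at 20° C, then in a greenhouse at 20° C. Infected Index was scored 5 days after inoculation from leaf counts by attack severity.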

[3] = tested on: Rhizoctonia solani (damping-off of cucumber); test: Exterminating test on damping-off of cucumber (Experimental Example 3); type: in vivo; conditions: Rhizoctonia solani, soil, 240 h, 1,000 ppm, soil drench 50 ml per pot, 10 days; read-out: Percentage of healthy seedlings
How it was run: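 Percentage of healthy seedlings was scored 10 days post inoculation, with PCNB 50% wettable powder run alongside as reference. Each pot held 10 Azumamidori cucumber seeds in field soil carrying 5 g Rhizoctonia solani. Soil drench: 50 ml water suspension of 80% wettable powder; greenhouse.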

[4] = tested on: seedlings of kidney beans (variety: Orient); test: Phytotoxicity on kidney beans (Experimental Example 5); type: in vivo; conditions: 1,000 ppm
[5] = tested on: cucumber seedlings (variety: Sagamihanjiro); test: Phytotoxicity on cucumber seedlings (Experimental Example 2); type: in vivo; conditions: 500 ppm
How it was run: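 Cucumber seedlings at the 3–4 leaf stage sprayed with water-diluted 80% wettable powder, then spray-inoculated with Cladosporium cucumerinum spores 24 h later. Plants held 24 h in a moist chamber at 20° C, then kept in a greenhouse at 20° C.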

[6] = tested on: botrytis cinerea (gray mold); test: Exterminating test on gray mold of tomato (Experimental Example 5); type: in vivo; parameters: scale not given here; conditions: 1,000 ppm, 48 hours after inoculation, kidney bean leaves
How it was run: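 Kidney bean seedlings (5-6 leaf stage) sprayed with water-diluted 80% wettable powder; leaves detached 24 h later and inoculated with B. cinerea agar disks under moist conditions. Lesion diameters measured 48 h post-inoculation to calculate an Effect Index.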

Cladosporium cucumerinum = test: Exterminating test for seed treatment (Experimental Example 7); type: in vivo
Excerpt: Exterminating test for seed treatment. Cucumber seeds (variety: Oyashima) were dipped in the spores suspension of Cladosporium cucumerinum and dried. After 1 day, the seeds were dressed with 80% wettable powder of the present invention. On the other hand, other seeds were dipped in the solution of 80% wettable powder of the present invention. Five (5) seeds treated by either dressing or dipping were placed on each potato dextrose agar plate. After 10 days after the treatment, degrees attacked by the pathogen were observed and the results were shown with an "Effective Index". An "Effective Index" was calculated as follows: [formula]

summer orange seedlings = test: Phytotoxicity on summer orange seedlings (Experimental Example 6); type: in vivo; conditions: 1,000 ppm
[7] = (2) waxman's liquid medium dilution method
[8] = (1) potato-dextrose agar dilution method
[9] = (3) glucose bouillon medium dilution method

| SMILES | minimum inhibitory concentration (Cladosporium harbarum) [mc g/ml] | minimum inhibitory concentration (Staphylococcus aureus) [mc g/ml] | Phytotoxicity ([1]; dipped, 5,000 ppm (30 min.)) | Phytotoxicity ([1]; dressed, 1 %) | Infected Index [2] | pest or weed control at 1000 ppm [3] [%] | Phytotoxicity [4] | Phytotoxicity [5] | Effect Index [6] | Effective Index (Cladosporium cucumerinum; dipped, 5,000 ppm (30 min.)) | Effective Index (Cladosporium cucumerinum; dressed, 1 %) | Phytotoxicity (summer orange seedlings) | other results |
| --- | --- | --- | --- | --- | --- | --- | --- | --- | --- | --- | --- | --- | --- |
| O=C(NC=C(Cl)Cl)c1ccccc1O [Compound No. 1, N-(β,β-dichlorovinyl) salicylamide] | 10 | 2.5 | Nil | Nil | 9.4 | 100 | Nil | Nil | 84 | 69 | 87 | Nil | minimum inhibitory concentration (Aspergillus niger; [7]): 10 mc g/ml; MIC (Aspergillus niger; Aspergillus niger, (1) potato-dextrose agar dilution method): 10 µg/mL (≈ 43.1 µM); MIC (Escherichia coli; [8]): 80 µg/mL (≈ 345 µM); MIC (Escherichia coli; [7]): 80 µg/mL (≈ 345 µM); MIC (Cladosporium harbarum; Cladosporium, (2) waxman's liquid medium dilution method): 5 µg/mL (≈ 21.5 µM); MIC (Bacillus subtilis; [8]): 2.5 µg/mL (≈ 10.8 µM); MIC (Bacillus subtilis; [7]): 5 µg/mL (≈ 21.5 µM); MIC (Penicillium Citrinum; [8]): 10 µg/mL (≈ 43.1 µM); MIC (Penicillium Citrinum; [7]): 20 µg/mL (≈ 86.2 µM); MIC (Staphylococcus aureus; [7]): 2.5 µg/mL (≈ 10.8 µM) |
| CC(=O)Oc1ccccc1C(=O)NC=C(Cl)Cl [Compound No. 6, O-acetyl-N-(2,2-dichlorovinyl) salicylamide] |  |  | Nil | Nil | 8.2 | 100 | Nil | Nil | 75 | 88 and 81 | 95 | Nil |  |
| O=C(NC=C(Cl)Cl)c1ccccc1O [Compound No. 20, sodium salt of N-(β,β-dichlorovinyl) salicylamide] | 2.5 | 6 |  | Nil | 13.7 |  | Nil | Nil | 85 |  | 90 |  | minimum inhibitory concentration (Aspergillus niger; [8]): 10 mc g/ml; MIC (Escherichia coli; [9]): 60 µg/mL; MIC (Bacillus subtilis; [9]): 5 µg/mL; minimum inhibitory concentration (Penicillium Citrinum; [8]): 10 mc g/ml; MIC (Staphylococcus aureus; [9]): 5 µg/mL |
